# Laboratory results taken from US12138256B2, “Treatment of cardiopulmonary disorders” (Bayer Aktiengesellschaft, priority 2021, dated 2024).
# Values joined by “and” are separate entries in the source; they are usually repeats but may differ in a detail not shown here. Equal entries are not always repeated.
# Tested on: thromboxane analog U46619 induced PAH in minipigs
# Experiment: Haemodynamics (PAP, BP) in the anesthetized thromboxane challenged PAH minipig after inhaled (nebulized) application (C-2.1)
# Type: in vivo, Göttingen minipig
# Settings: inhaled; for PAP % changes vs prevalue, mean: n = 3; for BP % change vs. baseline / PAP % change vs. baseline: individual animals
# Procedure, shortened: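 Anesthetized, ventilated Göttingen minipigs (2-6 kg) given continuous infusion (0.3-0.75 μg/kg/min) to raise mean PAP above 25 mmHg, dosing starting after a 30 min plateau. Compound in 1% DMSO/0.2% citric acid, pH 8, nebulized via Aeroneb Pro into the inspiratory arm (~7 min; stock 300 μg/kg). PAP by Swan-Ganz catheter, BP via carotid catheter.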
# [1] = 100 μg/kg nominal dose, time 80 min
# [2] = 100 μg/kg nominal dose, time 90 min
# [3] = 100 μg/kg nominal dose, time 100 min
# [4] = 100 μg/kg nominal dose, time 110 min
# [5] = 100 μg/kg nominal dose, time 120 min
# [6] = 100 μg/kg nominal dose, time 130 min
# [7] = 100 μg/kg nominal dose, time 140 min
# [8] = 100 μg/kg nominal dose, time 150 min
# [9] = 100 μg/kg nominal dose, time 160 min
# [10] = 100 μg/kg nominal dose, time 170 min
# [11] = 100 μg/kg nominal dose, time 180 min
smiles,measurement,setting,value
"O=C(O)c1ccc(CCN(CCc2ccccc2OCc2ccc(-c3ccc(C(F)(F)F)cc3)cc2Cl)[C@H]2CCCc3nc(C(=O)O)ccc32)cc1 [comparative example 11, (5S)-5-{[2-(4-carboxyphenyl)ethyl][2-(2-{[3-chloro-4′-(trifluoromethyl)[biphenyl]-4-yl]methoxy}phenyl)ethyl]amino}-5,6,7,8-tetrahydroquinoline-2-carboxylic acid]","PAP % changes vs prevalue, mean","10 μg/kg nominal dose, time 0 min",0%
same,"PAP % changes vs prevalue, mean","10 μg/kg nominal dose, time 10 min",0.6%
same,"PAP % changes vs prevalue, mean","10 μg/kg nominal dose, time 20 min",0.2%
same,"PAP % changes vs prevalue, mean","10 μg/kg nominal dose, time 30 min",−0.7%
same,"PAP % changes vs prevalue, mean","10 μg/kg nominal dose, time 40 min",−1.5%
same,"PAP % changes vs prevalue, mean","10 μg/kg nominal dose, time 50 min",−2.3%
same,"PAP % changes vs prevalue, mean","10 μg/kg nominal dose, time 60 min",−3.5%
same,"PAP % changes vs prevalue, mean","10 μg/kg nominal dose, time 70 min",−4.2%
same,"PAP % changes vs prevalue, mean","10 μg/kg nominal dose, time 80 min",−3.7%
same,"PAP % changes vs prevalue, mean","10 μg/kg nominal dose, time 90 min",−4.3%
same,"PAP % changes vs prevalue, mean","10 μg/kg nominal dose, time 100 min",−5.3%
same,"PAP % changes vs prevalue, mean","10 μg/kg nominal dose, time 110 min",−6.2%
same,"PAP % changes vs prevalue, mean","10 μg/kg nominal dose, time 120 min",−6.7%
same,"PAP % changes vs prevalue, mean","10 μg/kg nominal dose, time 130 min",−6.2%
same,"PAP % changes vs prevalue, mean","10 μg/kg nominal dose, time 140 min",−7%
same,"PAP % changes vs prevalue, mean","10 μg/kg nominal dose, time 150 min",−7.6%
same,"PAP % changes vs prevalue, mean","10 μg/kg nominal dose, time 160 min",−7.6%
same,"PAP % changes vs prevalue, mean","10 μg/kg nominal dose, time 170 min",−8.2%
same,"PAP % changes vs prevalue, mean","10 μg/kg nominal dose, time 180 min",−8.0%
same,"PAP % changes vs prevalue, mean","10 μg/kg nominal dose, time 190 min",−7.8%
same,"PAP % changes vs prevalue, mean","10 μg/kg nominal dose, time 200 min",−7.3%
same,"PAP % changes vs prevalue, mean","10 μg/kg nominal dose, time 210 min",−7.5%
same,"PAP % changes vs prevalue, mean","10 μg/kg nominal dose, time 220 min",−7.2%
same,"PAP % changes vs prevalue, mean","10 μg/kg nominal dose, time 230 min",−7.2%
same,"PAP % changes vs prevalue, mean","10 μg/kg nominal dose, time 240 min",−7.6%
same,"PAP % changes vs prevalue, mean","30 μg/kg nominal dose, time 0 min",0%
same,"PAP % changes vs prevalue, mean","30 μg/kg nominal dose, time 10 min",0.3%
same,"PAP % changes vs prevalue, mean","30 μg/kg nominal dose, time 20 min",−2.0%
same,"PAP % changes vs prevalue, mean","30 μg/kg nominal dose, time 30 min",−4.6%
same,"PAP % changes vs prevalue, mean","30 μg/kg nominal dose, time 40 min",−7.8%
same,"PAP % changes vs prevalue, mean","30 μg/kg nominal dose, time 50 min",−9.8%
same,"PAP % changes vs prevalue, mean","30 μg/kg nominal dose, time 60 min",−11.8%
same,"PAP % changes vs prevalue, mean","30 μg/kg nominal dose, time 70 min",−14.1%
same,"PAP % changes vs prevalue, mean","30 μg/kg nominal dose, time 80 min",−14.2%
same,"PAP % changes vs prevalue, mean","30 μg/kg nominal dose, time 90 min",−14.4%
same,"PAP % changes vs prevalue, mean","30 μg/kg nominal dose, time 100 min",−14.8%
same,"PAP % changes vs prevalue, mean","30 μg/kg nominal dose, time 110 min",−15.3%
same,"PAP % changes vs prevalue, mean","30 μg/kg nominal dose, time 120 min",−15.3%
same,"PAP % changes vs prevalue, mean","30 μg/kg nominal dose, time 130 min",−15.5%
same,"PAP % changes vs prevalue, mean","30 μg/kg nominal dose, time 140 min",−15.3%
same,"PAP % changes vs prevalue, mean","30 μg/kg nominal dose, time 150 min",−16.3%
same,"PAP % changes vs prevalue, mean","30 μg/kg nominal dose, time 160 min",−16.3%
same,"PAP % changes vs prevalue, mean","30 μg/kg nominal dose, time 170 min",−14.9%
same,"PAP % changes vs prevalue, mean","30 μg/kg nominal dose, time 180 min",−14.7%
same,"PAP % changes vs prevalue, mean","30 μg/kg nominal dose, time 190 min",−15.1%
same,"PAP % changes vs prevalue, mean","30 μg/kg nominal dose, time 200 min",−15.3%
same,"PAP % changes vs prevalue, mean","30 μg/kg nominal dose, time 210 min",−13.8%
same,"PAP % changes vs prevalue, mean","30 μg/kg nominal dose, time 220 min",−13.6%
same,"PAP % changes vs prevalue, mean","30 μg/kg nominal dose, time 230 min",−12.8%
same,"PAP % changes vs prevalue, mean","30 μg/kg nominal dose, time 240 min",−13.4%
same,"PAP % changes vs prevalue, mean","100 μg/kg nominal dose, time 0 min",0%
same,"PAP % changes vs prevalue, mean","100 μg/kg nominal dose, time 10 min",−2.1%
same,"PAP % changes vs prevalue, mean","100 μg/kg nominal dose, time 20 min",−7.2%
same,"PAP % changes vs prevalue, mean","100 μg/kg nominal dose, time 30 min",−14.6%
same,"PAP % changes vs prevalue, mean","100 μg/kg nominal dose, time 40 min",−18.1%
same,"PAP % changes vs prevalue, mean","100 μg/kg nominal dose, time 50 min",−22.2%
same,"PAP % changes vs prevalue, mean","100 μg/kg nominal dose, time 60 min",−25.1%
same,"PAP % changes vs prevalue, mean","100 μg/kg nominal dose, time 70 min",−27.0%
same,BP % change vs. baseline,[1],103.2% and 100.0% and 100.1%
same,PAP % change vs. baseline,[1],103.3% and 100.0% and 98.5%
same,"PAP % changes vs prevalue, mean",[1],−27.9%
same,BP % change vs. baseline,[2],98.8% and 98.2% and 100.1%
same,PAP % change vs. baseline,[2],98.8% and 102.2% and 99.6%
same,"PAP % changes vs prevalue, mean",[2],−28.9%
same,BP % change vs. baseline,[3],101.0% and 100.0% and 100.1%
same,PAP % change vs. baseline,[3],99.4% and 97.3% and 97.5%
same,"PAP % changes vs prevalue, mean",[3],−31.1%
same,BP % change vs. baseline,[4],98.8% and 99.1% and 98.2%
same,PAP % change vs. baseline,[4],94.0% and 90.4% and 94.4%
same,"PAP % changes vs prevalue, mean",[4],−30.8%
same,BP % change vs. baseline,[5],98.8% and 98.2% (2×)
same,PAP % change vs. baseline,[5],87.4% and 80.2% and 88.8%
same,"PAP % changes vs prevalue, mean",[5],−31.3%
same,BP % change vs. baseline,[6],98.8% and 98.2% and 99.2%
same,PAP % change vs. baseline,[6],84.3% and 75.6% and 86.1%
same,"PAP % changes vs prevalue, mean",[6],−31.2%
same,BP % change vs. baseline,[7],98.8% and 96.5% and 102.0%
same,PAP % change vs. baseline,[7],82.2% and 69.4% and 82.1%
same,"PAP % changes vs prevalue, mean",[7],−31.6%
same,BP % change vs. baseline,[8],97.7% and 95.6% and 103.0%
same,PAP % change vs. baseline,[8],80.0% and 67.4% and 77.3%
same,"PAP % changes vs prevalue, mean",[8],−31.1%
same,BP % change vs. baseline,[9],98.8% and 93.9% and 101.1%
same,PAP % change vs. baseline,[9],78.2% and 66.2% and 74.6%
same,"PAP % changes vs prevalue, mean",[9],−30.1%
same,BP % change vs. baseline,[10],98.8% and 95.6% and 99.2%
same,PAP % change vs. baseline,[10],78.1% and 65.9% and 72.4%
same,"PAP % changes vs prevalue, mean",[10],−31.1%
same,BP % change vs. baseline,[11],97.7% and 92.1% and 99.2%
same,PAP % change vs. baseline,[11],78.5% and 62.7% and 72.2%
same,"PAP % changes vs prevalue, mean",[11],−31.1%
same,BP % change vs. baseline,"100 μg/kg nominal dose, time 190 min",98.8% and 91.2% and 96.3%
